Here are results for eleven compounds from patent US9796711B2, “Substituted pyrazolo[3,4-b]pyridin-6-carboxylic acids and method of use” (AbbVie S.àr.l., priority 2015, dated 2017).

The target in this test is T1, ΔF508-CFTR (Homo sapiens, UniProt P13569, DEL508-508).
T1 construct: host or cells: CFBE41o-, doxycycline-inducible
Description: CFTR cell surface levels using HRP-tagged ΔF508-CFTR expressing CFBE cells, intrinsic corrector capacity. Format: cell-based. The note with it: HRP-tagged ΔF508-CFTR CFBE41o- cells, compounds alone (intrinsic corrector capacity), 20 hours at 33° C.; for % Activation: positive control 3 μM corrector; for EC50: read-out: EC50. The source says: Measuring CFTR Cell Surface Levels Using HRP-Tagged AF508-CFTR Expressing CFBE Cells
The HRP-tagged AF508-CFTR cell assay measures the expression of CFTR-ΔF508 at the plasma membrane. CFTR-ΔF508 has a folding defect leading to absence of protein at the plasma membrane. This assay is used to evaluate the capacity of compounds to increase the expression of CFTR-ΔF508 at the plasma membrane. The CFTR-ΔF508 is tagged with HRP (horse radish peroxidase enzyme) within the ECL4 (Extracellular loop 4) of CFTR (Phuan, P.-W. et al. Synergy-based small-molecule screen using a human lung epithelial cell line yields AF508-CFTR correctors that augment VX-809 maximal efficacy. Mol. Pharmacol. 86, 42-51 (2014)). When HRP-tagged AF508-CFTR is present at the plasma membrane, the HRP enzyme activity can be measured. The amount of CFTR-ΔF508 that can be rescued to the plasma membrane is correlated with the amount of functional enzyme that can be measured.
There are several ways to measure the capacity of compounds to rescue CFTR-ΔF508 to the plasma membrane; either compounds are evaluated on their own and the impact on plasma membrane levels is measured or compounds are evaluated in combination with a co-corrector, i.e. a compound that rescues CFTR-ΔF508 to the plasma membrane but rescue can be enhanced by addition of compounds due to a complementary mode of action.
Activity of Compounds for their Intrinsic Corrector Capacity:
For this purpose doxycycline-inducible AF508-CFTR-HRP expressing CFBE4lo-cells (obtained from Gergely Lukacs, McGill University) were maintained in MEM (Gibco; 31095) supplemented with 10% fetal bovine serum (Hyclone; SV30160.03) under puromycin (3 μg/mL) and G418 selection (0.2 mg/mL). For compound testing, cells were seeded at 4000 cells/well in white 384-well plates (Greiner; 781080) in 50 μL medium containing 0.5 μg/mL doxycycline and incubated for 68 hours at 37° C., 5% CO2. On day four, 10 μL test compounds diluted in PBS were added to the plates at a final DMSO concentration of 0.1%. All compound plates contained negative controls (DMSO) and positive controls (3 μM corrector, 3-[(2R,4R)-4-({[1-(2,2-difluoro-1,3-benzodioxol-5-yl)cyclopropyl]carbonyl}amino)-7-methoxy-3,4-dihydro-2H-chromen-2-yl]benzoic acid). Cell plates were incubated at 33° C., 5% CO2 for 20 hours. On day five, the cells were washed five times with phosphate-buffered saline, and HRP activity was assayed by the addition of 50 μL/well of HRP substrate (SuperSignal™ West Pico Chemiluminescent Substrate, Thermo Scientific; 34080). After incubation for 15 minutes in the dark, chemiluminescence was measured using a plate reader (EnVision®, Perkin Elmer). Raw data were normalized to percentage activity values using the equation: 100×(Sample−Negative control)/(Positive control−Negative Control).

T1 sequence (P13569 with tags, fused parts or gaps DEL508-508): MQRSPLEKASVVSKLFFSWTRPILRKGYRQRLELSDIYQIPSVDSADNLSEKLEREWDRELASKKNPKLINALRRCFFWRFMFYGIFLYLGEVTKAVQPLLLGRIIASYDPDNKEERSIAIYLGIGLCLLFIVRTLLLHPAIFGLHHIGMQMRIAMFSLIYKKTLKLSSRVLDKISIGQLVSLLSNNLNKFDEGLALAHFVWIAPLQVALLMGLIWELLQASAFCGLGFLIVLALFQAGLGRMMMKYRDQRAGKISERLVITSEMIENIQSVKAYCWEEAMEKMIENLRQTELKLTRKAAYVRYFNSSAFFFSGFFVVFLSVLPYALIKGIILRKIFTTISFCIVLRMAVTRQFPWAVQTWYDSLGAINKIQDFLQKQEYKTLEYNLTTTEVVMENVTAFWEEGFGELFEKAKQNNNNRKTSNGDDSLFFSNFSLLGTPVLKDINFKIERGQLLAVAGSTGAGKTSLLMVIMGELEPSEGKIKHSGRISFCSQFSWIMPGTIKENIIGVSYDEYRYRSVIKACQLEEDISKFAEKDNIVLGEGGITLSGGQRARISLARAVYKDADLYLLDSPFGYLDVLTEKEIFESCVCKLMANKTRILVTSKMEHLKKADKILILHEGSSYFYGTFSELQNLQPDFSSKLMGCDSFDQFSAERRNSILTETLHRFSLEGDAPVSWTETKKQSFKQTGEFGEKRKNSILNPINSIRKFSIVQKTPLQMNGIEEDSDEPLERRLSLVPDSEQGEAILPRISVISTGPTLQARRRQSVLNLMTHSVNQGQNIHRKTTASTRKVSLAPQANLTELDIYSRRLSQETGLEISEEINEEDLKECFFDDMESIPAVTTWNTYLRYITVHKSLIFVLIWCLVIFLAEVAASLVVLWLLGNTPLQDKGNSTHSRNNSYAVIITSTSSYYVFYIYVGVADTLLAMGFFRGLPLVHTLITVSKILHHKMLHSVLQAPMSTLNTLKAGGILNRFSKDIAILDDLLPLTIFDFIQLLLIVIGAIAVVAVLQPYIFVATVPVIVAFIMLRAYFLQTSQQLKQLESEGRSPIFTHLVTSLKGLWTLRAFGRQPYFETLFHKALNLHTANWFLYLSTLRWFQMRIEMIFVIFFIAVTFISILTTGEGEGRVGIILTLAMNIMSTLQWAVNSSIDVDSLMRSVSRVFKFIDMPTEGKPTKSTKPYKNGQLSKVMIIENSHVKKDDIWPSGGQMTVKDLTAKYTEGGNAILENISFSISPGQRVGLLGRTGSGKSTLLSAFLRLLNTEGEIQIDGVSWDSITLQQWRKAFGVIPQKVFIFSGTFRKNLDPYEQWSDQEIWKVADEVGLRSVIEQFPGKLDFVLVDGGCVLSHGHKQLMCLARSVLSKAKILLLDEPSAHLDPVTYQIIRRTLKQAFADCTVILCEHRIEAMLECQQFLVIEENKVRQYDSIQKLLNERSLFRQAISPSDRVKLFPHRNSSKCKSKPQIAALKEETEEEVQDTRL

On to `C=C(C)c1nn(-c2ccccc2)c2nc(C(=O)O)cc(-c3ccc(N4CCOCC4)cc3)c12` [compound 48, 4-[4-(morpholin-4-yl)phenyl]-1-phenyl-3-(prop-1-en-2-yl)-1H-pyrazolo[3,4-b]pyridine-6-carboxylic acid], for which the “% Activation” value is given as 163.7% and the EC50 came to 0.989 µM.
For `CC(C)c1nn(-c2ccccc2)c2nc(C(=O)O)cc(-c3ccc(N4CCCC4)cc3)c12` [compound 24, 1-phenyl-3-(propan-2-yl)-4-[4-(pyrrolidin-1-yl)phenyl]-1H-pyrazolo[3,4-b]pyridine-6-carboxylic acid] the same measures were 134.1% and 1.83 µM.
Taken in the same sequence, the figures for `CC(=O)N1CCN(c2ccc(-c3cc(C(=O)O)nc4c3c(C)nn4-c3ccccc3)cc2)CC1` [compound 29, 4-[4-(4-acetylpiperazin-1-yl)phenyl]-3-methyl-1-phenyl-1H-pyrazolo[3,4-b]pyridine-6-carboxylic acid] were 146.1% and 3.11 µM.
Taken in the same sequence, the figures for `Cc1nn(-c2cccc(S(N)(=O)=O)c2)c2nc(C(=O)O)cc(-c3ccc(N4CCOCC4)cc3)c12` [compound 45, 3-methyl-4-[4-(morpholin-4-yl)phenyl]-1-(3-sulfamoylphenyl)-1H-pyrazolo[3,4-b]pyridine-6-carboxylic acid] were 5.851% and over 10 µM.
Take `Cc1nn(-c2ccccc2)c2nc(C(=O)O)cc(-c3ccc(C4=CCN(C)CC4)cc3)c12` [compound 27, 3-methyl-4-[4-(1-methyl-1,2,3,6-tetrahydropyridin-4-yl)phenyl]-1-phenyl-1H-pyrazolo[3,4-b]pyridine-6-carboxylic acid]: the “% Activation” value is 41.145% and the EC50 came to 6.67 µM.
As to `CC(C)(CO)c1nn(-c2ccccc2)c2nc(C(=O)O)cc(-c3ccc(N4CCOCC4)cc3)c12` [compound 56, 3-(1-hydroxy-2-methylpropan-2-yl)-4-[4-(morpholin-4-yl)phenyl]-1-phenyl-1H-pyrazolo[3,4-b]pyridine-6-carboxylic acid], the “% Activation” value is 53.1% and the EC50 turned out to be 3.34 µM.
For `Cc1nn(-c2cccc(Br)c2)c2nc(C(=O)O)cc(-c3ccc(N4CCOCC4)cc3)c12` [compound 18, 1-(3-bromophenyl)-3-methyl-4-[4-(morpholin-4-yl)phenyl]-1H-pyrazolo[3,4-b]pyridine-6-carboxylic acid] the same measures were 126.8% and 0.783 µM.
For `Cc1nn(-c2ccc(F)c(F)c2)c2nc(C(=O)O)cc(-c3ccc(N4CCOCC4)cc3)c12` [compound 37, 1-(3,4-difluorophenyl)-3-methyl-4-[4-(morpholin-4-yl)phenyl]-1H-pyrazolo[3,4-b]pyridine-6-carboxylic acid] the same measures were 112.9% and 1.11 µM.
As to `Cc1nn(-c2ccccc2)c2nc(C(=O)O)cc(-c3ccc(N4CCCCC4)cc3)c12` [compound 8, 3-methyl-1-phenyl-4-[4-(piperidin-1-yl)phenyl]-1H-pyrazolo[3,4-b]pyridine-6-carboxylic acid], the “% Activation” value came to 91.055% and the EC50 was determined as 0.754 µM.
For `Cc1nn(-c2cc(F)cc(F)c2)c2nc(C(=O)O)cc(-c3ccc(N4CCOCC4)cc3)c12` [compound 10, 1-(3,5-difluorophenyl)-3-methyl-4-[4-(morpholin-4-yl)phenyl]-1H-pyrazolo[3,4-b]pyridine-6-carboxylic acid] the same measures were 116.55% and 0.867 µM.
For `Cc1nn(-c2cccc(S(C)(=O)=O)c2)c2nc(C(=O)O)cc(-c3ccc(N4CCOCC4)cc3)c12` [compound 38, 1-[3-(methanesulfonyl)phenyl]-3-methyl-4-[4-(morpholin-4-yl)phenyl]-1H-pyrazolo[3,4-b]pyridine-6-carboxylic acid] the same measures were 23.86% and over 10 µM.

As a reminder, the EC50 is the concentration at which the effect is half-maximal.
